Measured values from PMC3079579, “Solution Structure of a Repeated Unit of the ABA-1 Nematode Polyprotein Allergen of Ascaris Reveals a Novel Fold and Two Discrete Lipid-Binding Sites” (PLoS Neglected Tropical Diseases, 2011).

Key:
[1] = biological target: T1, ABA-1A (rABA-1A, RP-ABA-1A; As-NPA-1A) (Ascaris suum, UniProt Q06811); test: fluorescence blue-shift of probe; format: binding; conditions: PBS pH 7.3, 25 °C, data not shown
[2] = biological target: T1, ABA-1A (rABA-1A, RP-ABA-1A; As-NPA-1A); test: fluorescence titration (probe enhancement, […] nm); format: binding

T1 sequence (Q06811 534-662): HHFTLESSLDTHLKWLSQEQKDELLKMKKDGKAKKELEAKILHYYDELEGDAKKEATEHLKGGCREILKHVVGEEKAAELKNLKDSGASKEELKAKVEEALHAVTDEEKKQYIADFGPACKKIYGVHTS

SMILES	fluorescence blue-shift of probe [1]	Kd [2] [nM]
CCCCCCC(NS(=O)(=O)c1cccc2c(N(C)C)cccc12)C(=O)O (racemic) [DACA, dansyl-α-aminooctanoic acid]	A similar blue-shift (data not shown) was observed using dansyl-DL-α-caprylic acid (DACA)	–
CN(C)c1cccc2c(S(=O)(=O)NCCCCCCCCCCC(=O)O)cccc12 [DAUDA, 11-(((5-(dimethylamino)-1-napthalenyl)sulfonyl)amino)undecanoic acid]	–	110
